Measured values published in US20070149485A1, “SELECTED DOSAGE FOR THE TREATMENT OF CARDIOVASCULAR AND RELATED PATHOLOGIES” (Medicure International, Inc., priority 2005, published 2007).

Key:
[1] = in water, alcohol, and ether; cited from earlier work
[2] = system: high-risk patients undergoing CABG surgery with cardiopulmonary bypass; test: Intravenous P5P in high-risk patients undergoing CABG surgery (Example 2, protocol of Example 1 repeated); assay type: in vivo, human; settings: CK-MB cut-off 100 ng/ml
Procedure: The randomized, double-blind placebo-controlled, dose-ranging, parallel-arm multi-center study on high-risk patients undergoing CABG surgery with cardiopulmonary bypass of Experiment 1 is repeated using a protocol as described in Experiment 1, with the difference that the placebo/drug is administered intravenously, in an intravenous dose pharmacokinetically approximating the dosage given enterally in Experiment 1.
Approximately 3000 high-risk pre-CABG patients are screened and randomized to […], prior to their bypass surgery, as follows. Patients are either placed in a control group (placebo), treated intravenously with 5.00 mg/day of P5P, or treated intravenously with 23.33 mg/day of P5P.
Patients are identified as “high risk” if they had two or more of the following risk factors:
• Age greater than 65 years; • Current smoker; • History of diabetes mellitus requiring treatment other than diet; • Evidence of left ventricular dysfunction or congestive heart failure; • History of a previous non-disabling stroke, transient ischemic attack, or carotid endarterectomy; • Urgent CABG intervention defined as the need to stay in the hospital (although the patient may be operated on within a normal scheduling routine); • History of myocardial infarction that occurred more than 48 hours but less than 6 weeks prior to CABG surgery; • Prior peripheral artery surgery or angioplasty; • Moderate renal dysfunction defined as creatinine>133 μmol/L (1.5 mg/dl), but <250 μmol/L (2.8 mg/dl); and • Presence of at least one asymptomatic carotid artery stenosis (>50%) either in one or two carotid arteries.
The first dose of study medication is administered at 3-10 hours prior to CABG surgery. In the event of surgery delay or rescheduling, a second pre-operative dose of P5P is administered so that all patients receive study medication 3-10 hours before surgery. Treatment continues for 30 days after surgery (post operative day (POD) 30). Patients receive follow-up evaluations up to and including postoperative day on POD 30 and on POD 90.
Patients are measured for combined incidence of cardiovascular death and nonfatal myocardial infarction (MI) up to and including post-operative day 30 (POD 30). Patients are also measured for nonfatal myocardial infarction alone.
All deaths without an identifiable non-cardiovascular cause are considered of cardiovascular origin.
Cerebral infarction (stroke) is defined clinically as any new sudden onset focal neurological deficit lasting at least 24 hours as assessed by a neurologist and after neuroimaging (computed tomography [CT] brain scan or magnetic resonance imaging [MRI]) excludes an intracerebral hemorrhage. […]

[3] = system: animal model of ischemic brain injury; settings: animal model of ischemic brain injury (Wang, et al, J. Neurosurg. 2005); cited from earlier work

Cc1ncc(COP(=O)(O)O)c(C=O)c1O [P5P, 3-hydroxy-2-methyl-5-[(phosphonooxy)methyl]-4-pyridine-carboxaldehyde]
solubility [1]: essentially insoluble
reducing instances of myocardial infarction ([2]; intravenous 5.00 mg/day): highly effective
reducing total incidents (myocardial infarction, cerebral infarction, or death) ([2]; intravenous 5.00 mg/day, better than 23.33 mg/day): highly effective
reducing instances of myocardial infarction ([2]; intravenous 23.33 mg/day): highly effective
reducing total incidents (myocardial infarction, cerebral infarction, or death) ([2]; intravenous 23.33 mg/day): highly effective
neuroprotective effects [3]: neuroprotective effects
